Test results reported in PubChem BioAssay AID1963431 (Molecular Pharmacology Branch, DTP, NCI, 2024).

Test system: Rh18 complex spheroid viability, percent test/control
Assay: Anticancer human tumor Rh18 cell line growth inhibition [Asc];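 also: spheroids exposed to compound for 7 days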;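 as to viability, T/C: 100% = DMSO vehicle control wells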
Details: for IC50: curve of first compound; for viability, T/C: stronger effect = lower value
Procedure, shortened: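 Concentration series start at each agent's clinical Cmax, or at 10 microM when none is established, and drop in half-log steps; agents are applied alone or together to complex spheroids built with HUVEC and hMSC.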

Question: Which IC50 (second compound 0.00316 µM) does the source give for `C#Cc1c(F)ccc2cc(O)cc(-c3ncc4c(N5CC6CCC(C5)N6)nc(OCC56CCCN5CC(F)C6)nc4c3F)c12` (configuration not stated) + CNC(C)C(=O)NC1CN(S(=O)(=O)c2cccc(S(=O)(=O)N3CCC4CCC(C(=O)NC(c5ccccc5)c5ccccc5)N4C(=O)C(NC(=O)C(C)NC)C3)c2)CCC2CCC(C(=O)NC(c3ccccc3)c3ccccc3)N2C1=O here?
Answer: 5080 nM

Question: And the IC50 (second compound 0.01 µM)?
Answer: 4310 nM

Question: And the IC50 (second compound 0.0316 µM)?
Answer: 3640 nM

Question: And the IC50 (second compound 0.1 µM)?
Answer: < 31.6 nM

Question: What about the IC50 (second compound 0.316 µM) of the same compound?
Answer: 1790 nM

Question: What about the IC50 (second compound 1 µM) of the same compound?
Answer: 3380 nM

Question: What about the viability, T/C (second compound 0.00316 µM, first compound 0.0316 µM) of the same compound?
Answer: 67.1%

Question: What about the viability, T/C (second compound 0.00316 µM, first compound 0.1 µM) of the same compound?
Answer: 60.7%

Question: What about the viability, T/C (second compound 0.00316 µM, first compound 0.316 µM) of the same compound?
Answer: 64.5%

Question: What about the viability, T/C (second compound 0.00316 µM, first compound 1 µM) of the same compound?
Answer: 65%

Question: What about the viability, T/C (second compound 0.00316 µM, first compound 3.16 µM) of the same compound?
Answer: 70.7%

Question: And the viability, T/C (second compound 0.00316 µM, first compound 10 µM)?
Answer: 27.7%

Question: And the viability, T/C (second compound 0.01 µM, first compound 0.0316 µM)?
Answer: 57.4%

Question: What about the viability, T/C (second compound 0.01 µM, first compound 0.1 µM) of the same compound?
Answer: 60.7%

Question: And the viability, T/C (second compound 0.01 µM, first compound 0.316 µM)?
Answer: 50.2%

Question: And the viability, T/C (second compound 0.01 µM, first compound 1 µM)?
Answer: 74.8%

Question: And the viability, T/C (second compound 0.01 µM, first compound 3.16 µM)?
Answer: 63.9%

Question: And the viability, T/C (second compound 0.01 µM, first compound 10 µM)?
Answer: 18.9%

Question: And the viability, T/C (second compound 0.0316 µM, first compound 0.0316 µM)?
Answer: 63.2%

Question: What about the viability, T/C (second compound 0.0316 µM, first compound 0.1 µM) of the same compound?
Answer: 40.7%

Question: And the viability, T/C (second compound 0.0316 µM, first compound 0.316 µM)?
Answer: 52.2%

Question: What about the viability, T/C (second compound 0.0316 µM, first compound 1 µM) of the same compound?
Answer: 55.3%

Question: And the viability, T/C (second compound 0.0316 µM, first compound 3.16 µM)?
Answer: 61.5%

Question: What about the viability, T/C (second compound 0.0316 µM, first compound 10 µM) of the same compound?
Answer: 17.6%

Question: What about the viability, T/C (second compound 0.1 µM, first compound 0.0316 µM) of the same compound?
Answer: 40.1%

Question: And the viability, T/C (second compound 0.1 µM, first compound 0.1 µM)?
Answer: 52.3%

Question: And the viability, T/C (second compound 0.1 µM, first compound 0.316 µM)?
Answer: 40.3%

Question: What about the viability, T/C (second compound 0.1 µM, first compound 1 µM) of the same compound?
Answer: 61.9%

Question: What about the viability, T/C (second compound 0.1 µM, first compound 3.16 µM) of the same compound?
Answer: 50.9%

Question: And the viability, T/C (second compound 0.1 µM, first compound 10 µM)?
Answer: 14.1%

Question: And the viability, T/C (second compound 0.316 µM, first compound 0.0316 µM)?
Answer: 74.4%

Question: And the viability, T/C (second compound 0.316 µM, first compound 0.1 µM)?
Answer: 69%

Question: What about the viability, T/C (second compound 0.316 µM, first compound 0.316 µM) of the same compound?
Answer: 58.9%

Question: And the viability, T/C (second compound 0.316 µM, first compound 1 µM)?
Answer: 47.2%

Question: And the viability, T/C (second compound 0.316 µM, first compound 3.16 µM)?
Answer: 54.4%

Question: What about the viability, T/C (second compound 0.316 µM, first compound 10 µM) of the same compound?
Answer: 11.8%

Question: And the viability, T/C (second compound 1 µM, first compound 0.0316 µM)?
Answer: 78.2%

Question: What about the viability, T/C (second compound 1 µM, first compound 0.1 µM) of the same compound?
Answer: 50.2%

Question: What about the viability, T/C (second compound 1 µM, first compound 0.316 µM) of the same compound?
Answer: 45%

Question: What about the viability, T/C (second compound 1 µM, first compound 1 µM) of the same compound?
Answer: 51.6%

Question: And the viability, T/C (second compound 1 µM, first compound 3.16 µM)?
Answer: 53.3%

Question: And the viability, T/C (second compound 1 µM, first compound 10 µM)?
Answer: 10.5%

Question: `C#Cc1c(F)ccc2cc(O)cc(-c3ncc4c(N5CC6CCC(C5)N6)nc(OCC56CCCN5CC(F)C6)nc4c3F)c12` (configuration not stated) + CCN1C(C(=O)NC23CCC(C(=O)O)(CC2)CC3)C(c2cccc(Cl)c2F)C2(C(=O)Nc3cc(Cl)ccc32)C12CCCCC2 was tested. Which IC50 (second compound 0.03 µM) did it give?
Answer: < 31.6 nM

Question: And the IC50 (second compound 0.0949 µM)?
Answer: < 31.6 nM

Question: And the IC50 (second compound 0.3 µM)?
Answer: < 31.6 nM

Question: And the IC50 (second compound 0.949 µM)?
Answer: < 31.6 nM

Question: And the IC50 (second compound 3 µM)?
Answer: < 31.6 nM

Question: And the viability, T/C (second compound 0.03 µM, first compound 0.0316 µM)?
Answer: 42.7%

Question: What about the viability, T/C (second compound 0.03 µM, first compound 0.1 µM) of the same compound?
Answer: 45.1%

Question: And the viability, T/C (second compound 0.03 µM, first compound 0.316 µM)?
Answer: 43.9%

Question: What about the viability, T/C (second compound 0.03 µM, first compound 1 µM) of the same compound?
Answer: 40.4%

Question: What about the viability, T/C (second compound 0.03 µM, first compound 3.16 µM) of the same compound?
Answer: 41.8%

Question: And the viability, T/C (second compound 0.03 µM, first compound 10 µM)?
Answer: 46.6%

Question: What about the viability, T/C (second compound 0.0949 µM, first compound 0.0316 µM) of the same compound?
Answer: 25.1%

Question: What about the viability, T/C (second compound 0.0949 µM, first compound 0.1 µM) of the same compound?
Answer: 24.1%

Question: And the viability, T/C (second compound 0.0949 µM, first compound 0.316 µM)?
Answer: 22.1%

Question: What about the viability, T/C (second compound 0.0949 µM, first compound 1 µM) of the same compound?
Answer: 28.2%

Question: What about the viability, T/C (second compound 0.0949 µM, first compound 3.16 µM) of the same compound?
Answer: 23.6%

Question: What about the viability, T/C (second compound 0.0949 µM, first compound 10 µM) of the same compound?
Answer: 25.3%

Question: And the viability, T/C (second compound 0.3 µM, first compound 0.0316 µM)?
Answer: 13.1%

Question: What about the viability, T/C (second compound 0.3 µM, first compound 0.1 µM) of the same compound?
Answer: 13.9%

Question: What about the viability, T/C (second compound 0.3 µM, first compound 0.316 µM) of the same compound?
Answer: 14.4%

Question: What about the viability, T/C (second compound 0.3 µM, first compound 1 µM) of the same compound?
Answer: 12.6%

Question: What about the viability, T/C (second compound 0.3 µM, first compound 3.16 µM) of the same compound?
Answer: 15.6%

Question: What about the viability, T/C (second compound 0.3 µM, first compound 10 µM) of the same compound?
Answer: 13.7%

Question: What about the viability, T/C (second compound 0.949 µM, first compound 0.0316 µM) of the same compound?
Answer: 11.7%

Question: And the viability, T/C (second compound 0.949 µM, first compound 0.1 µM)?
Answer: 12.7%

Question: What about the viability, T/C (second compound 0.949 µM, first compound 0.316 µM) of the same compound?
Answer: 11%

Question: What about the viability, T/C (second compound 0.949 µM, first compound 1 µM) of the same compound?
Answer: 12.4%

Question: And the viability, T/C (second compound 0.949 µM, first compound 3.16 µM)?
Answer: 12.3%

Question: And the viability, T/C (second compound 0.949 µM, first compound 10 µM)?
Answer: 10.5%

Question: And the viability, T/C (second compound 3 µM, first compound 0.0316 µM)?
Answer: 8.99%

Question: And the viability, T/C (second compound 3 µM, first compound 0.1 µM)?
Answer: 12.6%

Question: And the viability, T/C (second compound 3 µM, first compound 0.316 µM)?
Answer: 12.4%

Question: What about the viability, T/C (second compound 3 µM, first compound 1 µM) of the same compound?
Answer: 11.5%

Question: And the viability, T/C (second compound 3 µM, first compound 3.16 µM)?
Answer: 8.93%

Question: And the viability, T/C (second compound 3 µM, first compound 10 µM)?
Answer: 11.6%
